One experiment deals with SK-ES-1. Description: Monolayer cell culture IC50 (CellTiter-Glo viability), SK-ES-1. The format is cell-based, human. The note with it: Sarcoma, SK-ES-1, monolayer, 72 hours treatment, average of three replications. As for the experimental part:
(§1) Cancer cell lines listed in Table 1 were subjected for testing anti-cancer potency or the half maximal inhibitory concentration (IC50) of the D-Actinomycin (DACT) molecular complexes.
(§2) The SK-ES-1, U-2 OS, and SAOS-2 cells were cultured in a growth medium that is ATCC-formulated McCoy's 5a Medium Modified, Catalog No. 30-2007. The PC-3, PANC-1, SK-Mel-5, A549, H460, and H1299 were cultured in a growth medium that is ATCC-formulated Dulbecco's Modified Eagle's Medium (DMEM), Catalog No. 30-2002. The cells were seeded on 96-well microtiter plates with 3500 cells per well and cultured in an incubator (Model 3120, Thermo Scientific, USA) with a constant temperature at 37° C. and 5% carbon dioxide (CO2) gas for 24 hours.
(§3) The new DACT-molecular complexes were made into a series with concentration of 200 nM to 40 nM, 8 nM, 1.6 nM, 0.32 nM, and 0.064 nM. 100 μl of each solution was then added into each well to bring out the final concentration of the drug treatment at 100 nM, 20 nM, 4 nM, 0.8 nM, 0.16 nM, or 0.032 nM, respectively.
(§4) The treated cells in the 96 well plate was then further cultured at the same conditions for 72 hours and then subjected for a final cell viability measurement. The measurement used a homogeneous method to determine the number of metabolically active cells presented in each of treatments. A testing reagent for the measurement is a mixture solution of the CellTiter-Glo® 2.0 reagent (CTG, Promega Cat #G9243, USA) and growth medium in 1:1 ratio in this respect.
(§5) The 96-well plate with the new molecular complex treated cells was taken out from incubator after the 72 hours of incubation, and the treatment solution in each well was removed using a multichannel pipette, and 100 μl of the testing reagent were added into each well. The plate was then placed on a plate shaker for 15 min. The plate was covered with a piece of aluminum foil to protect the CTG luminescence during the shaking time.
(§6) Then 90 μl of the 100 μl testing reagent were transferred into an opaque-walled 96-well plate for the CTG luminescence reading on a plate reader (SynergyH4 Hybrid Reader, Biotek, USA). The luminescence intensity of each treatment was positively correlated with the number of cells survived during the treatments.
(§7) All the treatment data was normalized by comparing with the control samples that had only growth medium without any molecular complexes. The half maximal inhibitory concentration (IC50) data was calculated using the nonlinear regression model and dose-responses (inhibition) curve built in the software. Each of treatments was performed in three replications each time and repeated three times for validation. The IC50 average […] (Avg) and standard deviation (STDV) were calculated based on the three replications.
For orientation: ATP-based viability assays read luminescence as a measure of living cells.

The test system of a further experiment is PANC-1. In words: Monolayer cell culture IC50 (CellTiter-Glo viability), PANC-1. The format is cell-based. The note with it: Pancreatic, PANC-1, monolayer, 72 hours treatment, average of three replications. How it is done: as §1, §2, §3, §4, §5, §6, §7
The subject of the next experiment is U-2 OS. In words: Monolayer cell culture IC50 (CellTiter-Glo viability), U-2 OS. It counts as cell-based. The following applies: Sarcoma, U-2 OS, monolayer, 72 hours treatment, average of three replications. How it is done: as §1, §2, §3, §4, §5, §6, §7
Another experiment has as its system H1299. In words: Monolayer cell culture IC50 (CellTiter-Glo viability), H1299. The format is cell-based. The following applies: Lung, 72 hours treatment, average of three replications. As for the experimental part: as §1, §2, §3, §4, §5, §6, §7
The subject of another experiment is H460. Description: Monolayer cell culture IC50 (CellTiter-Glo viability), H460. The format is cell-based. The note with it: Lung, 72 hours treatment, average of three replications. How it is done:
as §1, §2, §3, §4, §5, §6, §7

Another experiment relates to SK-Mel-5. Description: Monolayer cell culture IC50 (CellTiter-Glo viability), SK-Mel-5. The format is cell-based. The note with it: Skin, SK-Mel-5, monolayer, 72 hours treatment, average of three replications. As for the experimental part:
as §1, §2, §3, §4, §5, §6, §7

Where [1] appears, read: Test I, read-out: IC50 Test (I) Avg.
Where [2] appears, read: Test II, read-out: IC50 Test (II) Avg.
[3] abbreviates: Test III, read-out: IC50 Test (III) Avg.

The source of these data is US11319311B2, “Crystalline forms of Actinomycin D for treatment of cancer” (TRANSGENEX NANOBIOTECH, INC., priority 2018, dated 2022).

Read-outs that look alike come from different tables or passages of the source.

As usually defined, the IC50 is the concentration that inhibits the measured activity by half.

Regarding `CCCOC(=O)c1ccc(O)cc1.Cc1c2oc3c(C)ccc(C(=O)NC4C(=O)NC(C(C)C)C(=O)N5CCCC5C(=O)N(C)CC(=O)N(C)C(C(C)C)C(=O)OC4C)c3nc-2c(C(=O)NC2C(=O)NC(C(C)C)C(=O)N3CCCC3C(=O)N(C)CC(=O)N(C)C(C(C)C)C(=O)OC2C)c(N)c1=O` (stereo not drawn) [DACT-propylparaben], the half-maximal inhibitory concentration (IC50) in the experiment with SK-ES-1 (setting [1]) was 0.76 nM; with SK-ES-1 (setting [2]), 0.34 nM; with SK-ES-1 (setting [3]) it was 0.49 nM; with PANC-1 (setting [1]), 4.61 nM; with PANC-1 (setting [2]) it was 1.71 nM; with PANC-1 (setting [3]), 3.29 nM. Further, the IC50 with U-2 OS (setting [1]) came to 3.63 nM; in the experiment with U-2 OS (setting [2]), 3.85 nM; with U-2 OS (setting [3]), 1.79 nM; with H1299 (setting [1]), 1.48 nM; with H1299 (setting [2]), 0.96 nM; in the experiment on H1299 (setting [3]) it was 1.05 nM. The IC50 was 0.21 nM in the experiment with H460 (setting [1]); 0.3 nM in the experiment with H460 (setting [2]); 0.15 nM with H460 (setting [3]); 0.39 nM in the experiment with SK-Mel-5 (setting [1]); 0.27 nM in the experiment on SK-Mel-5 (setting [2]); 2.59 nM in the experiment on SK-Mel-5 (setting [3]).
